Measured values reported in US20260232643A1, “METHODS OF TREATING SOLID TUMORS WITH MITOGEN ACTIVATED PROTEIN KINASE (MAPK) PATHWAY ALTERATIONS” (Jazz Pharmaceuticals Ireland Limited, priority 2023, published 2026).
Positions count from the first letter of the chain named. Where “and” joins values, the source holds several entries; their conditions need not be identical. Equal values may be shown once. Read-outs that look alike come from different tables or passages of the source.

Assays:
ARAF WT = molecular target: T1, ARAF WT (Homo sapiens, UniProt P10398); experiment: PanQinase flash plate-based kinase assay
T1 sequence (P10398 1-606): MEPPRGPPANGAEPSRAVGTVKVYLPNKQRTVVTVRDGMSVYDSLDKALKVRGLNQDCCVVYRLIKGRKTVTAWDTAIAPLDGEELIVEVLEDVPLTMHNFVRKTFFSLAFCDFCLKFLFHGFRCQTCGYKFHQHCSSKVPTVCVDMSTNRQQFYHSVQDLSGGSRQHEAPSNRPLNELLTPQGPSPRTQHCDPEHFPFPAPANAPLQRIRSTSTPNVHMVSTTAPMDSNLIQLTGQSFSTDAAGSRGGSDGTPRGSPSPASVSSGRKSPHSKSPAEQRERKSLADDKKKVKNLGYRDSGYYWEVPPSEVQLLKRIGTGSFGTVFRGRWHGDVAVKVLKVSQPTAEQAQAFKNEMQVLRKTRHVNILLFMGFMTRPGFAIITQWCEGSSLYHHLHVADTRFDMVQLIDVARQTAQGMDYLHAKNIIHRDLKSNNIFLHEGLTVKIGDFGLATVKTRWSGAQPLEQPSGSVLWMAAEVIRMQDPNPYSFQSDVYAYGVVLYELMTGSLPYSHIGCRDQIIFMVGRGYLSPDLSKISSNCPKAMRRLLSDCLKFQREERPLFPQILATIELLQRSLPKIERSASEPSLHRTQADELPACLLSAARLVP

BRAF V600E = BRAF V600E (Homo sapiens, UniProt P15056, V600E); experiment: PanQinase flash plate-based kinase assay
BRAF WT = BRAF WT (Homo sapiens, UniProt P15056); experiment: PanQinase flash plate-based kinase assay
ARAF del 347_348 G387D = molecular target: T2, ARAF del 347_348 G387D (Homo sapiens, UniProt P10398, DEL347-348/G387D); experiment: PanQinase flash plate-based kinase assay
T2 sequence (P10398 with tags, fused parts or gaps DEL347-348/G387D): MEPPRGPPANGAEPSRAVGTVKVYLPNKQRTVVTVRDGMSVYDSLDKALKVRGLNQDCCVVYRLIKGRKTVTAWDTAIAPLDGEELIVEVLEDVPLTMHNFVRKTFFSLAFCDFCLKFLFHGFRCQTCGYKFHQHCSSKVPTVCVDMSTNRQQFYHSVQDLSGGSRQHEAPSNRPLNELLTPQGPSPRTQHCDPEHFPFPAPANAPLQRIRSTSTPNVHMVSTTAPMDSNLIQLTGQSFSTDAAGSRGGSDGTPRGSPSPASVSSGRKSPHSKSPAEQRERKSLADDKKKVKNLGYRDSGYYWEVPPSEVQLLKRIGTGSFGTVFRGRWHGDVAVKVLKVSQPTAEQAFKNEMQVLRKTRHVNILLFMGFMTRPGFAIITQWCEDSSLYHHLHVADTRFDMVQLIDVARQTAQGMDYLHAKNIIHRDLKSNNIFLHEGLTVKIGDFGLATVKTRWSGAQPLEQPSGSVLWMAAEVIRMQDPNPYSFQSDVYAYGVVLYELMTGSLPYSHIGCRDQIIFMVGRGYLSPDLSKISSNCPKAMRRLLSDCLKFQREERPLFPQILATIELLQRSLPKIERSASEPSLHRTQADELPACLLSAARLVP

ARAF G377R = molecular target: T3, ARAF G377R (Homo sapiens, UniProt P10398, G377R); experiment: PanQinase flash plate-based kinase assay
T3 sequence (P10398 1-606 G377R): T1 sequence (P10398 1-606) with G377R

CRAF WT = CRAF WT (Homo sapiens, UniProt P04049, Y340D/Y341D); experiment: PanQinase flash plate-based kinase assay
ARAF del 347_348 = molecular target: T4, ARAF del 347_348 (Homo sapiens, UniProt P10398, DEL347-348); experiment: PanQinase flash plate-based kinase assay
T4 sequence (P10398 with tags, fused parts or gaps DEL347-348): T2 sequence (P10398 with tags, fused parts or gaps DEL347-348/G387D) with D385G

Sprague Dawley rats = details: 0, 10, 20, or 45 mg/kg/day once daily via oral gavage
Method: (§1) Compound I was evaluated in GLP-compliant 28-day oral toxicity studies in 2 preclinical species, Sprague Dawley rats and beagle dogs. In the rat 28-day study, Compound I was administered at 0, 10, 20, or 45 mg/kg/day once daily via oral gavage. […] In the dog 28-day study, Compound I was administered at 0, 3.75, 7.5, or 15 mg/kg/day once daily via oral gavage.

beagle dogs = details: 0, 3.75, 7.5, or 15 mg/kg/day once daily via oral gavage
Method: as §1

[1] = test system: metastatic NRASQ61 mutated melanoma; format: in vivo, human
Method: This is a phase 1 study of Compound I in participants with advanced or metastatic solid tumors harboring alterations in the MAPK pathway. The study comprises 2 parts: dose exploration (Part A) and expansion (Part B).
Compound I (i.e., (S)-5-((3-(4-(4-fluorophenyl)-1H-imidazol-2-yl) chroman-6-yl)oxy)-3,4-dihydro-1,8-naphthyridin-2 (1H)-one) is orally administered to participants BID in a capsule formulation with unit dose strengths of 10 mg or 25 mg, taken approximately 12 hours apart in the morning and in the evening. Specifically, in Part A, Compound I is administered as a single dose on Cycle 1 Day 1, with no doses administered on Days 2 and 3 before proceeding with BID dosing on Day 4 and after.
Tumor response to therapy will be assessed by the investigator using RECIST v1.1. Tumor assessments will be made by CT/MRI/PE at Screening, on Day 1 of Cycle 3 (Day 57), and every 2 cycles (56 days) thereafter until Dayl of Cycle 13, after which tumor assessments will be every 3 cycles (84 days) and at the End of Treatment Visit. Tumor assessments will include all known or suspected disease sites. Imaging must include chest, abdomen, and pelvis CT or MRI scans. Imaging will be performed on the abdomen, chest, pelvis, and the site of the primary tumor if it is located elsewhere.
Dosing regimens: To assess the safety and efficacy of Compound I in the cancer treatment, Compound I was orally administered to participants at 20 mg BID (“bis in die”, or “twice a day”), 30 mg BID, 50 mg BID, 50 mg QD (“quaque die”, “once a day”), 75 mg BID, or 100 mg QD for a period of time. Treatment-related adverse events (TRAE, Grade≤2 and Grade ≥3) were monitored and recorded. The efficacy of Compound I in treating cancer was determined by using radiologic tumor assessment as per RECIST v1.1 (e.g., PET-CT or MRI scans).

[2] = test system: RAS (NRAS and KRAS) and RAF (BRAF Class 2/3) mutation driven colorectal cancer, non-small cell lung cancer, melanoma, and ovarian cancer xenografts; experiment: Tumor growth inhibition in xenograft mice models; format: in vivo; details: 10 mg/kg BID, 30 mg/kg BID, 30 mg/kg QD, 100 mg/kg QD, FIGS. 1A-E
Method: Vehicle was administered BID as a control.
The effect of Compound I in tumor growth inhibition was evaluated in xenograft mice models carrying pathogenic RAS (NRAS and KRAS) and RAF (BRAF Class 2/3) mutation driven colorectal cancer, non-small cell lung cancer, melanoma, and ovarian cancer.

BRAF WT, sequence (P15056 whole entry): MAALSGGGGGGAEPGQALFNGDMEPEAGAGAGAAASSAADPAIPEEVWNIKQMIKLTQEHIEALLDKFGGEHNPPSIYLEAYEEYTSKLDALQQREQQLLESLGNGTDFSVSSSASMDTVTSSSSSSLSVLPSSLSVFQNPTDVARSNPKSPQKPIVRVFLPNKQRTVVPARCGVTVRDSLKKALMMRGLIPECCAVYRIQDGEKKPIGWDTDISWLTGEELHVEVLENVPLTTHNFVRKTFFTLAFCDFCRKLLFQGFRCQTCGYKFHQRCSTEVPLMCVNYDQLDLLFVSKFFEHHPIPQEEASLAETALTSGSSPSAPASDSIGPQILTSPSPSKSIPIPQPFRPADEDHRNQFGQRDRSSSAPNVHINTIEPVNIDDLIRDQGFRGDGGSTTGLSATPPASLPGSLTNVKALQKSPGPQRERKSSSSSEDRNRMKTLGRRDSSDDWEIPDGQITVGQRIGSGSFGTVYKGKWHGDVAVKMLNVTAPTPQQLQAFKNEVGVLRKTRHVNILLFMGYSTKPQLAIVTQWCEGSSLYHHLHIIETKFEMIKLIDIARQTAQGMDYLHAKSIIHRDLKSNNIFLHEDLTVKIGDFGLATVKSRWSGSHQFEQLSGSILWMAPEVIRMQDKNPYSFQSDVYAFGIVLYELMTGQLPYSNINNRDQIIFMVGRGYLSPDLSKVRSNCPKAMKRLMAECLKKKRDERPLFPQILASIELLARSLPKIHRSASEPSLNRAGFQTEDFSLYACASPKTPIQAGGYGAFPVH
CRAF WT, sequence (P04049 307-648 Y340D/Y341D): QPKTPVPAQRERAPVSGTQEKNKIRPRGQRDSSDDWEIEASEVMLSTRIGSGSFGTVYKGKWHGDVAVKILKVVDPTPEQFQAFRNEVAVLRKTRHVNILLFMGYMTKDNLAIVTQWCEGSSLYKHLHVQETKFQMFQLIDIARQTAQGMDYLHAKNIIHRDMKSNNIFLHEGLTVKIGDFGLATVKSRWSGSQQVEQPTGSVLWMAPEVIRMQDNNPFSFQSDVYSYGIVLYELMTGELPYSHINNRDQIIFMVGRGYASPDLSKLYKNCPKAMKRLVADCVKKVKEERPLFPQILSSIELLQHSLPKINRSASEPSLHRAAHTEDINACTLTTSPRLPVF
BRAF V600E, sequence (P15056 whole entry V600E): as the sequence (P15056 whole entry) above, with V600E counted along it

Row | IC50 (ARAF WT) [nM] | IC50 (BRAF V600E) [nM] | IC50 (BRAF WT) [nM] | IC50 (ARAF del 347_348 G387D) [nM] | IC50 (ARAF G377R) [nM] | IC50 (CRAF WT) [nM] | IC50 (ARAF del 347_348) [nM] | SMILES | predicted human Vss [L/kg] | predicted human CL (allometrically scaled) [mL/min/kg] | findings in 28-day oral toxicity study (Sprague Dawley rats) | findings in 28-day oral toxicity study (beagle dogs) | reduction in target lesions ([1]; after 2 months, n=1, metastatic NRASQ61 mutated melanoma, 50 mg QD) [%] | reduction in the target lesion ([1]; after 4 months (confirmation of PR), n=1, metastatic NRASQ61 mutated melanoma, 50 mg QD) [%] | PET avidity (PET/CT) ([1]; n=1, metastatic NRASQ61 mutated melanoma, 50 mg QD, FIG. 3) | tumor response per RECIST v1.1 ([1]; participant (n=1), metastatic NRASQ61 mutated melanoma, 50 mg QD oral) | IC50 (ARAF WT; average IC50 ARAF WT, PanQinase flash plate assay, kinase dead MEK K97M substrate, 0.1-3 μM ATP) | tumor growth inhibition [2]
1 | 26 | 193 | 97.2 | 46.5 | 754 | 9.1 | 60.3 | Cc1ccc2c(Nc3cccc(Cl)c3F)nccc2c1NC(=O)c1csc2c(N)ncnc12 [Belvarafenib] | – | – | – | – | – | – | – | – | – | –
2 | 63.5 | 191 | 141 | 67.2 | 621 | 9.7 | 154 | Cc1ccc(NC(=O)c2ccnc(C(F)(F)F)c2)cc1-c1cc(OCCO)nc(N2CCOCC2)c1 [Naporafenib] | – | – | – | – | – | – | – | – | – | –

Row | SMILES | IC50 (ARAF WT) [nM] | IC50 (BRAF V600E) [nM] | IC50 (BRAF WT) [nM] | IC50 (ARAF del 347_348 G387D) [nM] | IC50 (ARAF G377R) [nM] | IC50 (CRAF WT) [nM] | IC50 (ARAF del 347_348) [nM] | predicted human Vss [L/kg] | predicted human CL (allometrically scaled) [mL/min/kg] | findings in 28-day oral toxicity study (Sprague Dawley rats) | findings in 28-day oral toxicity study (beagle dogs) | reduction in target lesions ([1]; after 2 months, n=1, metastatic NRASQ61 mutated melanoma, 50 mg QD) [%] | reduction in the target lesion ([1]; after 4 months (confirmation of PR), n=1, metastatic NRASQ61 mutated melanoma, 50 mg QD) [%] | PET avidity (PET/CT) ([1]; n=1, metastatic NRASQ61 mutated melanoma, 50 mg QD, FIG. 3) | tumor response per RECIST v1.1 ([1]; participant (n=1), metastatic NRASQ61 mutated melanoma, 50 mg QD oral) | IC50 (ARAF WT; average IC50 ARAF WT, PanQinase flash plate assay, kinase dead MEK K97M substrate, 0.1-3 μM ATP) | tumor growth inhibition [2]
3 | O=C1CCc2c(Oc3ccc4c(c3)CC(c3ncc(-c5ccc(F)cc5)[nH]3)CO4)ccnc2N1 (stereo not drawn) [Compound I, 5-((3-(4-(4-fluorophenyl)-1H-imidazol-2-yl)chroman-6-yl)oxy)-3,4-dihydro-1,8-naphthyridin-2 (1H)-one] | – | 40.2 | 40.6 | 20.4 | 142 | 2.3 | 68.3 | 0.77 | 1.2 | No mortality, and no clinical signs, changes in body weight or food consumption, ophthalmology, clinical pathology or macroscopic findings of toxicological relevance were noted | No mortality, and no clinical signs, changes in body weight or food consumption, ophthalmology, ECG, clinical pathology, macroscopic or microscopic findings of toxicological relevance were noted | 61 | 69 | significant resolution of PET avidity | partial response (PR) | 15.7 nM and 11.4 nM | dose-dependent tumor growth inhibition effect
